Our source for the EC50 values is patent US9474790B2, “Stable, protracted GLP-1/glucagon receptor co-agonists for medical use” (Novo Nordisk A/S, priority 2013, dated 2016).

pEC50: −log10 of the molar value. Numbered stars: 1 amine (or outer) side, 2 acyl side, 3 side chain; on linkers, the order of the positions; unused ones are H or OH. Square brackets hold non-standard residues; d marks the D form. Side chains are listed from the residue outwards. Peptide text beside a SMILES is read from it. * marks the point of attachment. C18 diacid = O=C(O)CCCCCCCCCCCCCCCCC(=O)*; γGlu = O=C(O)[C@H](CCC(=O)[*:2])N[*:1]; Ac4c = NC1(C(=O)O)CCC1; AEEA = NCCOCCOCC(=O)O; Aib = CC(C)(N)C(=O)O

One assay concerns the target T1, human GLP-1 receptor (Homo sapiens, UniProt P43220).
T1 construct: expressed in transfected cells; host or cells: BHK cells (parent BHKTS13), clone FCW467-12A/KZ10-1, with CRE luciferase
The assay is described as follows: GLP-1 receptor potency, CRE luciferase reporter gene assay in BHK cells. Format: cell-based. To be noted: BHK cells expressing human GLP-1 receptor, read-out: EC50 GLP-1R. The method, boiled down:
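BHK cells stably expressing human GLP-1 receptor with CRE-luciferase reporter, 5×10EE3 cells/well in phenol red-free DMEM with 10 mM Hepes, 2% ovalbumin, 0.2% Pluronic F-68. Compounds at final 1×10EE-6 to 1×10EE-13 M, 3 h at 37° C; steadylite luminescence; EC50 by four-parameter fit, in pM.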
(In general: Reporter assays use an easily measured gene product as a stand-in for the process of interest.)

The target in the next assay is T2, human glucagon receptor (Homo sapiens, UniProt P47871).
T2 construct: expressed in transfected cells; host or cells: BHK cells (parent BHK570, CRE luciferase clone BHK/KZ10-20-48), clone pLJ6'-4-25
T2 sequence (P47871 26-477): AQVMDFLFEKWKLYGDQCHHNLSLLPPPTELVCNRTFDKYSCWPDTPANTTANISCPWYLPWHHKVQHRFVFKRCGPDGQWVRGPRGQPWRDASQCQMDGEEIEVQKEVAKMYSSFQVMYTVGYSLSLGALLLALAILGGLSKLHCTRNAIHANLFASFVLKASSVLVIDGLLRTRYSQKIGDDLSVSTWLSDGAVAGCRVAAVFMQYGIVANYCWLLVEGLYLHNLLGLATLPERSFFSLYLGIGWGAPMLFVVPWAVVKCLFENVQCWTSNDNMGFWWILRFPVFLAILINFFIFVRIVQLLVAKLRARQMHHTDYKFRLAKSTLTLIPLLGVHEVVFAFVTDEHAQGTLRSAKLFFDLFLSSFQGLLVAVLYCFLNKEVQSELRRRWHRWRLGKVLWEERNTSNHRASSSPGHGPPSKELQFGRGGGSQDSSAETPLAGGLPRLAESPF
The assay is described as follows: Glucagon receptor potency, CRE luciferase reporter gene assay in BHK cells. It is filed as cell-based. To be noted: BHK cells expressing human glucagon receptor, read-out: EC50 GlucR. The method in brief: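 Stably transfected BHK cells (BHK570 background) expressing human glucagon receptor with CRE-firefly luciferase reporter, 5×10EE3 cells/well in DMEM/HEPES with 2% ovalbumin and 0.2% Pluronic F-68. Compounds 1×10EE-13 to 1×10EE-6 M final, 3 h at 37 °C; luminescence read, EC50 from four-parameter fit, in pM.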

T1 sequence (P43220 24-463): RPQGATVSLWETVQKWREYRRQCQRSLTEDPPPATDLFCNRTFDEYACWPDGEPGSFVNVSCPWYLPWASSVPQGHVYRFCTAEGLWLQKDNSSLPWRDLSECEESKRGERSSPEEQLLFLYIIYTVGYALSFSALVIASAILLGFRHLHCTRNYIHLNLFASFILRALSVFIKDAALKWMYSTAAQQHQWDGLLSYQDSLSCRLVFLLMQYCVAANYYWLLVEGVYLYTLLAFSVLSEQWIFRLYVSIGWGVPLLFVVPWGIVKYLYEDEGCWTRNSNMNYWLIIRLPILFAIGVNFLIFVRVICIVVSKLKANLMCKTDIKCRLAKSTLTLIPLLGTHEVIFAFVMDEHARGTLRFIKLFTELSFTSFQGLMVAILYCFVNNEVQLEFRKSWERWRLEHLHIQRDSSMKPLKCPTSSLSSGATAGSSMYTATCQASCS

`CC(C)C[C@H](NC(=O)[C@H](Cc1ccc(O)cc1)NC(=O)[C@H](CCCCN)NC(=O)[C@H](CO)NC(=O)[C@H](CC(C)C)NC(=O)[C@H](CC(=O)O)NC(=O)[C@H](CO)NC(=O)[C@@H](NC(=O)[C@H](Cc1ccccc1)NC(=O)[C@@H](NC(=O)CNC(=O)[C@H](CCC(N)=O)NC(=O)C(C)(C)NC(=O)[C@@H](N)Cc1c[nH]cn1)[C@@H](C)O)[C@@H](C)O)C(=O)N[C@@H](CC(=O)O)C(=O)N[C@@H](C)C(=O)N[C@@H](CCCNC(=N)N)C(=O)N[C@@H](CCCNC(=N)N)C(=O)N[C@@H](C)C(=O)N[C@@H](CCCNC(=N)N)C(=O)N[C@@H](CCC(=O)O)C(=O)N[C@@H](Cc1ccccc1)C(=O)N[C@H](C(=O)N[C@@H](CCC(N)=O)C(=O)N[C@@H](Cc1c[nH]c2ccccc12)C(=O)N[C@@H](CC(C)C)C(=O)N[C@@H](CC(C)C)C(=O)N[C@@H](CCCCNC(=O)CC[C@H](NC(=O)CC[C@H](NC(=O)COCCOCCNC(=O)COCCOCCNC(=O)CC[C@H](NC(=O)CCCCCCCCCCCCCCCCC(=O)O)C(=O)O)C(=O)O)C(=O)O)C(=O)N[C@H](C(N)=O)[C@@H](C)O)C(C)C` [Example 43, N^ε28-[(4S)-4-carboxy-4-[[(4S)-4-carboxy-4-[[2-[2-[2-[[2-[2-[2-[[(4S)-4-carboxy-4-(17-carboxyheptadecanoylamino)butanoyl]amino]ethoxy]ethoxy]acetyl]amino]ethoxy]ethoxy]acetyl]amino]butanoyl]amino]butanoyl]-[Aib2,Leu10,Ala16,Arg20,Glu21,Leu27,Lys28]-Glucagon amide] (H-H[Aib]QGTFTSDLSKYLDARRAREFVQWLLK([γGlu-γGlu-AEEA-AEEA-γGlu-C18 diacid])T-NH2; N-terminus assumed): the pEC50 (in general, the EC50 on a negative log10 scale, so that one unit is a factor of ten) at human GLP-1 receptor was 11.30; on human glucagon receptor it was 11.70.

For `CC(C)C[C@H](NC(=O)[C@H](Cc1ccc(O)cc1)NC(=O)[C@H](CCCCN)NC(=O)[C@H](CO)NC(=O)[C@H](CC(C)C)NC(=O)[C@H](CC(=O)O)NC(=O)[C@H](CO)NC(=O)[C@@H](NC(=O)[C@H](Cc1ccccc1)NC(=O)[C@@H](NC(=O)CNC(=O)[C@H](CCC(N)=O)NC(=O)C1(NC(=O)[C@@H](N)Cc2c[nH]cn2)CCC1)[C@@H](C)O)[C@@H](C)O)C(=O)N[C@@H](CCC(=O)O)C(=O)N[C@@H](CO)C(=O)N[C@@H](CCCNC(=N)N)C(=O)N[C@@H](CCCNC(=N)N)C(=O)N[C@@H](C)C(=O)N[C@@H](CCCNC(=N)N)C(=O)N[C@@H](CCC(=O)O)C(=O)N[C@@H](Cc1ccccc1)C(=O)N[C@H](C(=O)N[C@@H](CCC(N)=O)C(=O)N[C@@H](Cc1c[nH]c2ccccc12)C(=O)N[C@@H](CC(C)C)C(=O)N[C@@H](CC(C)C)C(=O)N[C@@H](CCCCNC(=O)CC[C@H](NC(=O)CC[C@H](NC(=O)COCCOCCNC(=O)COCCOCCNC(=O)CC[C@H](NC(=O)CCCCCCCCCCCCCCCCC(=O)O)C(=O)O)C(=O)O)C(=O)O)C(=O)N[C@H](C(N)=O)[C@@H](C)O)C(C)C` [Example 44, N^ε28-[(4S)-4-carboxy-4-[[(4S)-4-carboxy-4-[[2-[2-[2-[[2-[2-[2-[[(4S)-4-carboxy-4-(17-carboxyheptadecanoylamino)butanoyl]amino]ethoxy]ethoxy]acetyl]amino]ethoxy]ethoxy]acetyl]amino]butanoyl]amino]butanoyl]-[Acb2,Leu10,Glu15,Arg20,Glu21,Leu27,Lys28]-Glucagon amide] (H-H[Ac4c]QGTFTSDLSKYLESRRAREFVQWLLK([γGlu-γGlu-AEEA-AEEA-γGlu-C18 diacid])T-NH2; N-terminus assumed), the values for the pEC50 at human GLP-1 receptor and on human glucagon receptor were 11.52 and 11.00, respectively.

For `CC(C)C[C@H](NC(=O)[C@H](CC(=O)O)NC(=O)[C@H](CC(C)C)NC(=O)[C@H](Cc1ccc(O)cc1)NC(=O)[C@H](CCCCN)NC(=O)[C@H](CO)NC(=O)[C@H](CC(C)C)NC(=O)[C@H](CC(=O)O)NC(=O)[C@H](CO)NC(=O)[C@@H](NC(=O)[C@H](Cc1ccccc1)NC(=O)[C@@H](NC(=O)CNC(=O)[C@H](CCC(N)=O)NC(=O)C1(NC(=O)[C@@H](N)Cc2c[nH]cn2)CCC1)[C@@H](C)O)[C@@H](C)O)C(=O)N[C@@H](CCCCN)C(=O)N[C@@H](CCCNC(=N)N)C(=O)N[C@@H](C)C(=O)N[C@@H](CCCNC(=N)N)C(=O)N[C@@H](CCC(=O)O)C(=O)N[C@@H](Cc1ccccc1)C(=O)N[C@H](C(=O)N[C@@H](CCC(N)=O)C(=O)N[C@@H](Cc1c[nH]c2ccccc12)C(=O)N[C@@H](CC(C)C)C(=O)N[C@@H](CC(C)C)C(=O)N[C@@H](CCCCNC(=O)CC[C@H](NC(=O)CC[C@H](NC(=O)COCCOCCNC(=O)COCCOCCNC(=O)CC[C@H](NC(=O)CC[C@H](NC(=O)CCCCCCCCCCCCCCCCC(=O)O)C(=O)O)C(=O)O)C(=O)O)C(=O)O)C(=O)N[C@H](C(N)=O)[C@@H](C)O)C(C)C` [Example 47, N^ε28-[(4S)-4-carboxy-4-[[(4S)-4-carboxy-4-[[2-[2-[2-[[2-[2-[2-[[(4S)-4-carboxy-4-[[(4S)-4-carboxy-4-(17-carboxyheptadecanoylamino)butanoyl]amino]butanoyl]amino]ethoxy]ethoxy]acetyl]amino]ethoxy]ethoxy]acetyl]amino]butanoyl]amino]butanoyl]-[Acb2,Leu10,Leu16,Lys17,Arg20,Glu21,Leu27,Lys28]-Glucagon amide] (H-H[Ac4c]QGTFTSDLSKYLDLKRAREFVQWLLK([γGlu-γGlu-AEEA-AEEA-γGlu-γGlu-C18 diacid])T-NH2; N-terminus assumed), the pEC50 on human GLP-1 receptor is 10.77; on human glucagon receptor, 11.30.

Take `CC(C)C[C@H](NC(=O)[C@H](CC(=O)O)NC(=O)[C@H](CC(C)C)NC(=O)[C@H](Cc1ccc(O)cc1)NC(=O)[C@H](CCCCN)NC(=O)[C@H](CO)NC(=O)[C@H](CC(C)C)NC(=O)[C@H](CC(=O)O)NC(=O)[C@H](CO)NC(=O)[C@@H](NC(=O)[C@H](Cc1ccccc1)NC(=O)[C@@H](NC(=O)CNC(=O)[C@H](CCC(N)=O)NC(=O)C1(NC(=O)[C@@H](N)Cc2c[nH]cn2)CCC1)[C@@H](C)O)[C@@H](C)O)C(=O)N[C@@H](CCCNC(=N)N)C(=O)N[C@@H](CCCNC(=N)N)C(=O)N[C@@H](C)C(=O)N[C@@H](CCCNC(=N)N)C(=O)N[C@@H](CCC(=O)O)C(=O)N[C@@H](Cc1ccccc1)C(=O)N[C@H](C(=O)N[C@@H](CCC(N)=O)C(=O)N[C@@H](Cc1c[nH]c2ccccc12)C(=O)N[C@@H](CC(C)C)C(=O)N[C@@H](CC(C)C)C(=O)N[C@@H](CCCCNC(=O)CC[C@H](NC(=O)CC[C@H](NC(=O)COCCOCCNC(=O)COCCOCCNC(=O)CC[C@H](NC(=O)CC[C@H](NC(=O)CCCCCCCCCCCCCCCCC(=O)O)C(=O)O)C(=O)O)C(=O)O)C(=O)O)C(=O)N[C@H](C(N)=O)[C@@H](C)O)C(C)C` [Example 49, N^ε28-[(4S)-4-carboxy-4-[[(4S)-4-carboxy-4-[[2-[2-[2-[[2-[2-[2-[[(4S)-4-carboxy-4-[[(4S)-4-carboxy-4-(17-carboxyheptadecanoylamino)butanoyl]amino]butanoyl]amino]ethoxy]ethoxy]acetyl]amino]ethoxy]ethoxy]acetyl]amino]butanoyl]amino]butanoyl]-[Acb2,Leu10,Leu16,Arg20,Glu21,Leu27,Lys28]-Glucagon amide] (H-H[Ac4c]QGTFTSDLSKYLDLRRAREFVQWLLK([γGlu-γGlu-AEEA-AEEA-γGlu-γGlu-C18 diacid])T-NH2; N-terminus assumed): the pEC50 at human GLP-1 receptor was 10.77; at human glucagon receptor, 11.40.

For `CC(C)C[C@H](NC(=O)[C@H](Cc1c[nH]c2ccccc12)NC(=O)[C@H](CCC(N)=O)NC(=O)[C@@H](NC(=O)[C@H](Cc1ccccc1)NC(=O)[C@H](CCC(=O)O)NC(=O)[C@H](CCCNC(=N)N)NC(=O)[C@H](C)NC(=O)[C@H](CCCNC(=N)N)NC(=O)[C@H](CCCNC(=N)N)NC(=O)C(C)(C)NC(=O)[C@H](CC(=O)O)NC(=O)[C@H](CC(C)C)NC(=O)[C@H](Cc1ccc(O)cc1)NC(=O)[C@H](CCCCN)NC(=O)[C@H](CO)NC(=O)[C@H](CC(C)C)NC(=O)[C@H](CC(=O)O)NC(=O)[C@H](CO)NC(=O)[C@@H](NC(=O)[C@H](Cc1ccccc1)NC(=O)[C@@H](NC(=O)CNC(=O)[C@H](CCC(N)=O)NC(=O)C(C)(C)NC(=O)[C@@H](N)Cc1c[nH]cn1)[C@@H](C)O)[C@@H](C)O)C(C)C)C(=O)N[C@@H](CC(C)C)C(=O)N[C@@H](CCCCNC(=O)CC[C@H](NC(=O)CC[C@H](NC(=O)COCCOCCNC(=O)COCCOCCNC(=O)CC[C@H](NC(=O)CCCCCCCCCCCCCCCCC(=O)O)C(=O)O)C(=O)O)C(=O)O)C(=O)N[C@H](C(N)=O)[C@@H](C)O` [Example 51, N^ε28-[(4S)-4-carboxy-4-[[(4S)-4-carboxy-4-[[2-[2-[2-[[2-[2-[2-[[(4S)-4-carboxy-4-(17-carboxyheptadecanoylamino)butanoyl]amino]ethoxy]ethoxy]acetyl]amino]ethoxy]ethoxy]acetyl]amino]butanoyl]amino]butanoyl]-[Aib2,Leu10,Aib16,Arg20,Glu21,Leu27,Lys28]-Glucagon amide] (H-H[Aib]QGTFTSDLSKYLD[Aib]RRAREFVQWLLK([γGlu-γGlu-AEEA-AEEA-γGlu-C18 diacid])T-NH2; N-terminus assumed), the values for the pEC50 at human GLP-1 receptor and at human glucagon receptor were 11.22 and 11.40, respectively.
